System: RLS patient
Assay: Treatment of one RLS patient with thalidomide; RLS severity and sleep disturbance observed weekly with four questionnaires
Assay type: in vivo, human
Settings: for IRLSSG severity: 100 mg thalidomide daily plus two tablets pramipexole 0.18 mg, scale 0 to 40; for ESS sleepiness: Epworth Sleepiness Scale 0 to 24; for MOS sleep disturbance: range 0-100%; for RLS-6 score: scale 0 to 10
Experimental: The patient had been diagnosed with RLS but had suffered from the disease since childhood. They had family history of RLS with their parent and two siblings being affected.
The patient was washed off the concurrent medication, with the exception of two tablets of 0.18 mg pramipexole, which was maintained throughout the study.
After the baseline period, they were prescribed 100 mg of the inhibitor of the cereblon (CRBN) thalidomide (i.e. 2-(2,6-dioxopiperidin-3-yl)-2,3-dihydro-1H-isoindole-1,3-dione) daily, which they continued taking for three weeks in addition to their two tables pramipexol 0,18 mg treatment.
Throughout the six-week period, the RLS severity and sleep disturbance of the patient were weekly observed with four different questionnaires: • 1. IRLSSG severity scale: This is the gold standard questionnaire to evaluate RLS severity both in clinical practice and in pharmaceutical studies. The scale is based on 10 questions answered by the patient, and final severity score ranges from 0 to 40. On the IRLSSG scale, 0 points corresponds to no RLS, 1-10 points corresponds to mild RLS, 11-20 points corresponds to moderate RLS, 21-30 points corresponds to severe RLS and 31-40 points corresponds to very severe RLS. • 2. RLS-6 scale. This is an alternative scale used to evaluate different aspects of RLS. The average score may be used to evaluate the overall severity of RLS. The scale ranges from 0 to 10, with 0 indicating no RLS and 10 being the most severe RLS severity score. • 3. Epworth Sleepiness Scale (ESS). This is a gold standard questionnaire used to evaluate daytime sleepiness in clinical practice and in pharmaceutical studies. The scale ranges from 0 to 24, where 0-5 corresponds to normal daytime sleepiness, 6-10 corresponds to higher normal daytime sleepiness, 11-12 corresponds to mild excessive daytime sleepiness, 13-15 corresponds to moderate excessive daytime sleepiness and 16-24 corresponds to severe daytime sleepiness. • 4. MOS Sleep Scale. This is a questionnaire used to evaluate sleep disturbance, sleep efficiency, sleep adequacy and other related parameters with different subscores derived from the answers. In this study, the sleep disturbance score was used. The range is 0-100%, 100% indicating the most severe sleep disturbance.

[1] = week 4, 100 mg thalidomide daily plus pramipexole
[2] = week 5, 100 mg thalidomide daily plus pramipexole
[3] = week 6, 100 mg thalidomide daily plus pramipexole

`O=C1CCC(N2C(=O)c3ccccc3C2=O)C(=O)N1` (stereo not shown) [Thalidomide, 2-(2,6-dioxopiperidin-3-yl)-2,3-dihydro-1H-isoindole-1,3-dione] gave an IRLSSG severity (week 4 (first treatment week)) of 21 points, an ESS sleepiness [1] of 4 and an MOS sleep disturbance [1] of 31.3%. The RLS-6 score [1] was 4.7, the IRLSSG severity (week 5 (second treatment week)) was 20 points and the ESS sleepiness [2] was 7. It also gave an MOS sleep disturbance [2] of 46.3%, an RLS-6 score [2] of 2.7 and an IRLSSG severity (week 6 (third treatment week)) of 16 points. For the same compound, the ESS sleepiness [3] was 3, the MOS sleep disturbance [3] was 43.8% and the RLS-6 score [3] was 2. The “treatment success of RLS on all four measured scores” value (weeks 4-6, 100 mg thalidomide daily plus pramipexole, compared with baseline weeks 1-3) was “significantly benefitted”.
